According to patent US20260275292A1, “MATURATION MEDIUM COMPOSITIONS AND METHODS FOR HUMAN HEART ORGANOID MATURATION” (Board of Trustees of Michigan State University, priority 2022, published 2026):
Structures can show the parent of a compound that is named as a salt.

Experiments:
human heart organoids [1] = assay: Immunofluorescence, confocal microscopy and image analysis; format: cell-based
Method: Immunofluorescence. Human heart organoids were transferred from the round bottom ultra-low attachment 96 well plate to 1.5 mL microcentrifuge tubes (Eppendorf) using a cut 200 μL pipette tip (to increase tip bore diameter as to not disturb the organoid). Organoids were fixed in 4% paraformaldehyde (VWR) in PBS for 30 minutes. Following, organoids were washed using PBS-Glycine (1.5 g/L) three times for 5 minutes each. Organoids were then blocked and permeabilized using a solution containing 10% Donkey Normal Serum (Sigma), 0.5% Triton X-100 (Sigma), and 0.5% BSA (Thermo Fisher Scientific) in PBS on a thermal mixer at 300 rpm at 4° C. overnight. Organoids were then washed 3 times using PBS and incubated with primary antibodies (Table 4) within a solution containing 1% Donkey Normal Serum, 0.5% Triton X-100, and 0.5% BSA in PBS (hereafter termed “Antibody Solution”) on a thermal mixer at 300 rpm at 4° C. for 24 hours.
Following, organoids were washed 3 times for 5 minutes each using PBS. Organoids were then incubated with secondary antibodies (Table 4) in Antibody Solution on a thermal mixer at 300 rpm at 4° C. for 24 hours in the dark. Subsequently, organoids were washed 3 times for 5 minutes each using PBS and mounted on glass microscope slides (Fisher Scientific). 90 μm Polybead Microspheres (Polyscience, Inc.) were placed between the slide and a No. 1.5 coverslip (VWR) to provide support pillars such that the organoids could retain three dimensionality. Organoids were transferred to the glass microscope slides using a cut 200 uL pipette tip and mounted using a clearing solution described previously^153. T-tubule staining was performed using FITC-conjugated Wheat Germ Agglutinin (WGA) lectins (Sigma).
Confocal Microscopy and Image Analysis. […] Images were analyzed using Fiji. […] Thresholds were generated for the equalized image intensity values.
(§1) Ondansetron treatment. Ondansetron hydrochloride (Sigma) was prepared at 200 μM in DMSO and was further diluted in DMEM/F12 ((Dulbecco's Modified Eagle Medium/Nutrient Mixture F-12) before being sterile filtered via a 0.22 μm PVDF filter (Sigma). Ondansetron was applied to heart organoids at final concentrations of 1 μM, 10 μM, and 100 μM in EMM2/1 medium, and was applied from Day 9 to Day 20 of culture. Organoids were collected on Day 30 for analysis.
DEAB and Retinoic Acid treatment. 4-Diethylaminobenzaldehyde (DEAB) (Sigma) was prepared at 1 M in DMSO, diluted further to 10 mM using DMSO, then finally diluted to 1 mM in DMEM/F12. Retinoic Acid (RA) (Sigma) was prepared at 1 M in DMSO, and diluted to 100 μM in DMEM/F12. Diluted solutions of DEAB and RA were sterile filtered via 0.22 μm PVDF filters (Sigma). […] DEAB, RA, and DEAB+RA were applied to heart organoids from Day 20 to Day 30 of culture using the EMM2/1 strategy. Organoids were collected on Day 30 for analysis.

human heart organoids [2] = assay: FlipGFP (active caspase 3) apoptosis reporter fluorescence in heart organoids; details: 10 μM, 48 hours, Day 28 to Day 30, EMM2/1 organoids
human heart organoids [3] = assay: Real time RT-PCR gene expression in heart organoids; format: cell-based; details: day 30, EMM2/1 organoids
Method: Real time RT-PCR. Organoids were collected at day 20, 21, 23, 25, and 30 and stored in RNAprotect (Qiagen) at −20° C. RNA was extracted using the Qiagen RNEasy Mini Kit according largely to the manufacturer's instructions. Organoids were lysed using the Bead Mill 4 Homogenizer (Fisher Scientific) at speed 2 for 30 seconds. RNA concentration was measured using a NanoDrop One (Thermo Fisher Scientific). A minimum threshold of […] was required to proceed with reverse transcription. cDNA was generated using the Quantitect Reverse Transcription Kit (Qiagen) and stored at −20° C. Primers for real time qPCR were designed using the Primer Quest tool (Integrated DNA Technologies). SYBR Green (Thermo Fisher Scientific) was used as the DNA intercalating dye and the amplifier for the reaction vessel. Real time qPCR was performed using the QuantStudio 5 Real-Time PCR system (Applied Biosystems) using a total reaction volume of 20 μL. Gene expression levels were normalized to HPRT1 expression in each independent sample. Log base 2 fold change values were obtained using the double delta CT method.

human heart organoids [4] = assay: Brightfield microscopy of organoid size and beating; format: cell-based
human heart organoids [5] = test system: human heart organoids
human heart organoids [6] = assay: Voltage imaging with di-8-ANEPPS; format: cell-based; details: 10 and 100 μM conditions
Method: Voltage imaging. Voltage activity within human heart organoids was assessed using di-8-ANEPPS (Thermo Fisher Scientific). Di-8-ANEPPS was solubilized in DMSO per the manufacturer's instructions. A 15 μM solution of di-8-ANEPPS was prepared in respective medium (Control, MM, EMM1, etc.). Organoids were washed twice using RPMI 1640 basal medium, then di-8-ANEPPS was added at a final concentration of 10 μM and incubated for 30 minutes at 37° C. and 5% CO2. Organoids were then washed twice using their respective medium (Control, MM, EMM1, etc.) and transferred to a chambered coverglass slide (Cellvis) using a cut 200 μL pipette tip. Videos were acquired using a Cellvivo microscope (Olympus) at 100 frames per second over 10 total seconds as an image stack at either 20× magnification (ondansetron) or 100× magnification (maturation electrophysiology). Samples were excited at 465 nm excitation and 630 nm emission was collected. Data was processed using Fiji and Microsoft Excel. Baseline F0 of fluorescence intensity F was calculated using the average of the lowest 50 intensity values in the acquired dataset. Fluorescence change ΔF/F0 was calculated using the same method as with Calcium imaging presented above. APD30 and APD90 were measured from the midpoint of the upstroke until 30% or 90% repolarization, respectively^162.
as §1

[7] = 10 μM, Day 20 to Day 30, EMM2/1 organoids

SMILES: CCN(CC)c1ccc(C=O)cc1 [DEAB, 4-Diethylaminobenzaldehyde]
- MYL3+ area relative to Untreated organoids (human heart organoids [1]; [7]): 0.35 fold
- NR2F2+ area relative to Untreated organoids (human heart organoids [1]; [7]): 0.42 fold

SMILES: COc1cccc2c1C(=O)c1c(O)c3c(c(O)c1C2=O)C[C@@](O)(C(=O)CO)C[C@@H]3O[C@H]1C[C@H](N)[C@H](O)[C@H](C)O1 [doxorubicin, Doxorubicin hydrochloride]
- FlipGFP fluorescence (apoptosis), positive control (human heart organoids [2]): high levels of fluorescence

SMILES: Cc1nccn1CC1CCc2c(c3ccccc3n2C)C1=O (stereo not shown) [ondansetron, Ondansetron hydrochloride]
- MYL2 expression relative to Untreated (human heart organoids [3]; 10 μM): 0.58 fold
- MYL2 expression relative to Untreated (human heart organoids [3]; 100 μM): 0.40 fold
- beating of heart organoids over time (human heart organoids [4]; 100 μM condition): most marked loss in cardiac activity
- beating of heart organoids over time (human heart organoids [4]; day 0 to day 30, all concentrations): progressive loss of beating
- MYL2+ area relative to Untreated (human heart organoids [1]; 10 μM, day 9 until day 30, EMM2/1 organoids): 0.55 fold
- MYL2+ area relative to Untreated (human heart organoids [1]; 100 μM, day 9 until day 30, EMM2/1 organoids): 0.18 fold
- structural organization of organoids compared to Untreated (human heart organoids [1]; 100 μM, day 30, EMM2/1 organoids): structurally less organized
- MYL7+ area (human heart organoids [1]; 1, 10 and 100 μM, day 9 until day 30, EMM2/1 organoids): remained unchanged
- apoptosis (FlipGFP fluorescence) (human heart organoids [5]): does not contribute to apoptosis
- APD30 compared to Untreated (human heart organoids [6]): increased
- APD90 compared to Untreated (human heart organoids [6]): increased
- action potential amplitude compared to Untreated (human heart organoids [6]): decreased
- action potential frequency compared to Untreated (human heart organoids [6]): decreased frequencies
